Data reported in patent US20260215428A1, “WEED CONTROL METHOD” (SYNGENTA CROP PROTECTION AG, priority 2023, published 2026).

Key:
Setaria viridis = assay: Glasshouse post-emergence test, visual damage, Table B1-5; type: in vivo; settings: 14 days after application
Experimental: (§1) Seeds of a variety of test species are sown in standard soil in pots. For each treatment, three replicate pots containing 10-15 plants per one-inch pot were sprayed at the 2-3 leaf stage. Clethodim and Compound (Ic) were each applied at 15, 30, 60 and 120 g ai/ha. The test plants are then grown in a glasshouse under controlled conditions in a glasshouse (at 24/16° C., day/night; 14 hours light; 65% humidity) and watered twice daily. Plants were assessed for visual damage compared to the untreated control 14 days after application (0=0% damage; 100=100% damage).

Digitaria sanguinalis = assay: Glasshouse post-emergence test, visual damage, Table B1-4; type: in vivo; settings: 14 days after application
Experimental: as §1

[1] = biotype GG2078 (homozygous), 15 g/ha
[2] = biotype GG2078 (homozygous), 30 g/ha
[3] = biotype GG2078 (homozygous), 60 g/ha
[4] = biotype GG2078 (homozygous), 120 g/ha
[5] = biotype II1781 (homozygous), 15 g/ha
[6] = biotype II1781 (homozygous), 30 g/ha
[7] = biotype II1781 (homozygous), 60 g/ha
[8] = biotype II1781 (homozygous), 120 g/ha
[9] = biotype LL1781 (homozygous), 15 g/ha
[10] = biotype LL1781 (homozygous), 30 g/ha
[11] = biotype LL1781 (homozygous), 60 g/ha
[12] = biotype LL1781 (homozygous), 120 g/ha
[13] = biotype I1781L (heterozygous), 15 g/ha
[14] = biotype I1781L (heterozygous), 30 g/ha
[15] = biotype I1781L (heterozygous), 60 g/ha
[16] = biotype I1781L (heterozygous), 120 g/ha

Structure (SMILES) | visual damage (Setaria viridis; [1]) [%] | visual damage (Setaria viridis; [2]) [%] | visual damage (Setaria viridis; [3]) [%] | visual damage (Setaria viridis; [4]) [%] | visual damage (Setaria viridis; [5]) [%] | visual damage (Setaria viridis; [6]) [%] | visual damage (Setaria viridis; [7]) [%] | visual damage (Setaria viridis; [8]) [%] | visual damage (Setaria viridis; [9]) [%] | visual damage (Setaria viridis; [10]) [%] | visual damage (Setaria viridis; [11]) [%] | visual damage (Setaria viridis; [12]) [%] | visual damage (Setaria viridis; biotype Sensitive, 15 g/ha) [%] | visual damage (Setaria viridis; biotype Sensitive, 30 g/ha) [%] | visual damage (Setaria viridis; biotype Sensitive, 60 g/ha) [%] | visual damage (Setaria viridis; biotype Sensitive, 120 g/ha) [%] | visual damage (Digitaria sanguinalis; [13]) [%] | visual damage (Digitaria sanguinalis; [14]) [%] | visual damage (Digitaria sanguinalis; [15]) [%] | visual damage (Digitaria sanguinalis; [16]) [%] | also measured
CC#Cc1ccc(C2=C(OC(=O)OC)C3CCC(C3)C2=O)c(OC)c1 (stereo not drawn) [Compound Ic] | 50 | 73 | 98 | 98 | 70 | 90 | 98 | 100 | 60 | 90 | 98 | 100 | 87 | 93 | 100 | 100 | 73 | 90 | 100 | 100 | visual damage (Digitaria sanguinalis; biotype Sensitive, 15 g/ha): 90%; visual damage (Digitaria sanguinalis; biotype Sensitive, 30 g/ha): 100%; visual damage (Digitaria sanguinalis; biotype Sensitive, 60 g/ha): 100%; visual damage (Digitaria sanguinalis; biotype Sensitive, 120 g/ha): 100%
CCSC(C)CC1CC(=O)C(/C(CC)=N/OC/C=C/Cl)=C(O)C1 (stereo not drawn) [Clethodim, clethodim] | 30 | 60 | 63 | 67 | 80 | 100 | 100 | 100 | 50 | 60 | 60 | 53 | 90 | 98 | 100 | 100 | 20 | 20 | 53 | 67 | visual damage (Digitaria sanguinalis; biotype Sensitive, 15 g/ha): 87%; visual damage (Digitaria sanguinalis; biotype Sensitive, 30 g/ha): 90%; visual damage (Digitaria sanguinalis; biotype Sensitive, 60 g/ha): 100%; visual damage (Digitaria sanguinalis; biotype Sensitive, 120 g/ha): 100%
